Patent US20170198006A1, “PRMT5 INHIBITORS AND USES THEREOF” (Epizyme, Inc., priority 2014, published 2017)

What follows are molecules tested against T1, PRMT5/MEP50 (Homo sapiens, UniProt O14744) (assay: PRMT5 Biochemical Assay (PRMT5/MEP50 enzyme assay on histone H4 peptide substrate, 3H-SAM Flashplate)). Conditions: not given.
T1 construct: Flag-PRMT5; made in house; host or cells: Spodoptera frugiperda (SF9), baculovirus
Text: S-adenosylmethionine (SAM), S-adenosylhomocysteine (SAH), bicine, KCl, Tween20, dimethylsulfoxide (DMSO), bovine skin gelatin (BSG), and Tris(2-carboxyethyl)phosphine hydrochloride solution (TCEP) were purchased from Sigma-Aldrich at the highest level of purity possible. ^3H-SAM was purchase from American Radiolabeled Chemicals with a specific activity of 80 Ci/mmol. 384-well streptavidin Flashplates were purchased from PerkinElmer.
Peptide representative of human histone H4 residues 1-15 was synthesized with a C-terminal linker-affinity tag motif and a C-terminal amide cap by 21st Century Biochemicals.
The amplified genes were sublconed into pENTR/D/TEV (Life Technologies) and subsequently transferred by Gateway™ attL×attR recombination to pDEST8 baculvirus expression vector (Life Technologies).
Protein over-expression was accomplished by infecting exponentially growing Spodoptera frugiperda (SF9) cell culture at 1.2×10^6 cell/ml with a 5000 fold dilution of BIIC stock. Infections were carried out at 27° C. for 72 hours, harvested by centrifugation, and stored at −80° C. for purification.
Flag-PRMT5/6His-MeP50 was eluted with 300 mM Imidazole in the same buffer.
General Procedure for PRMT5/MEP50 Enzyme Assays on Peptide Substrates.
The assays were all performed in a buffer consisting of 20 mM Bicine (pH=7.6), 1 mM TCEP, 0.005% BSG, and 0.002% Tween20, prepared on the day of use. […] DMSO (1 ul) was added to Columns 11, 12, 23, 24, rows A-H for the maximum signal control and 1 ul of SAH, a known product and inhibitor of PRMT5/MEP50, was added to columns 11, 12, 23, 24, rows I-P for the minimum signal control. A cocktail (40 ul) containing the PRMT5/MEP50 enzyme and the peptide was added by Multidrop Combi (Thermo-Fisher). The compounds were allowed to incubate with PRMT5/MEP50 for 30 min at 25 degrees Celsius, then a cocktail (10 ul) containing ^3H-SAM was added to initiate the reaction (final volume=51 ul). […] The assays were stopped by the addition of non-radioactive SAM (10 ul) to a final concentration of 600 uM, which dilutes the ^3H-SAM to a level where its incorporation into the peptide substrate is no longer detectable. 50 ul of the reaction in the 384-well polypropylene plate was then transferred to a 384-well Flashplate and the biotinylated peptides were allowed to bind to the streptavidin surface for at least 1 hour before being washed three times with 0.1% Tween20 in a Biotek ELx405 plate washer. The plates were then read in a PerkinElmer TopCount plate reader to measure the quantity of ^3H-labeled peptide bound to the Flashplate surface, measured as disintegrations per minute (dpm) or alternatively, referred to as counts per minute (cpm).
Where dpm=disintegrations per minute, cmpd=signal in assay well, and min and max are the respective minimum and maximum signal controls.
Where top and bottom are the normally allowed to float, but may be fixed at 100 or 0 respectively in a 3-parameter fit. The Hill Coefficient normally allowed to float but may also be fixed at 1 in a 3-parameter fit. Y is the % inhibition and X is the compound concentration.

T1 sequence (O14744 with tags, fused parts or gaps): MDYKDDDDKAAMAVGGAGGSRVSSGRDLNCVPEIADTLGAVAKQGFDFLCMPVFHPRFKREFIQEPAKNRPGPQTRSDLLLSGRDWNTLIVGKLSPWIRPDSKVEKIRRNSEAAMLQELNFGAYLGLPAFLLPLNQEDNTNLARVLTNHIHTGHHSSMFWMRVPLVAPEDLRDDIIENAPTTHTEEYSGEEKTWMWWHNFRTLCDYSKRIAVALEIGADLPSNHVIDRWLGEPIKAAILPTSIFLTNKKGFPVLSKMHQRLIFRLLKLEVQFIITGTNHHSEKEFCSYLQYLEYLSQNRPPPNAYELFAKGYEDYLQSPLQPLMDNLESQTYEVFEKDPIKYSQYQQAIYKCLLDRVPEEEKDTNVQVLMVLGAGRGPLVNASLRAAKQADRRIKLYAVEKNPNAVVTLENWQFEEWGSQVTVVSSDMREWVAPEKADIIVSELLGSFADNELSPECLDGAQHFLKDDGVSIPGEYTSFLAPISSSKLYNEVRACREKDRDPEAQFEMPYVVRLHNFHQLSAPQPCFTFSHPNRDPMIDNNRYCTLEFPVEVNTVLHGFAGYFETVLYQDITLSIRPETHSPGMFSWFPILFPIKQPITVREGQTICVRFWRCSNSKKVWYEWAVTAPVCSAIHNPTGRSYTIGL
T1 sequence (Q9BQA1 with tags, fused parts or gaps partner limits assumed): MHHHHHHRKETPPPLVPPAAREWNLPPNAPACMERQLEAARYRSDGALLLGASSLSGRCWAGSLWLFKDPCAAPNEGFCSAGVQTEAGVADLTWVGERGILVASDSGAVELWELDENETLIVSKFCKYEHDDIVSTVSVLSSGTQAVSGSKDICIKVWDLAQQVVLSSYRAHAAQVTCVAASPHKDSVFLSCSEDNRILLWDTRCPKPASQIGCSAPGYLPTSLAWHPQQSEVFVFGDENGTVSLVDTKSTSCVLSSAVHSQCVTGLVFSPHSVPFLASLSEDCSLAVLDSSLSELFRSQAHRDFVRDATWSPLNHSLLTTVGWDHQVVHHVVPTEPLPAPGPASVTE

| Compound | IC50 [nM] |
| --- | --- |
| NCCCSC[C@H]1O[C@@H](n2cnc3c(N)ncnc32)[C@H](O)[C@@H]1O [Compound 89-1] | < 100 |

Same assay, conditions: PRMT5 biochemical assay; read-out: Biochemical IC50

| Compound | IC50 [nM] |
| --- | --- |
| NCCCCN(CC[C@H](N)C(=O)O)C[C@H]1O[C@@H](n2cnc3c(N)ncnc32)[C@H](O)[C@@H]1O [Compound 24-1] | < 100 |
| NCc1nc(CCNC(=O)c2ccccc2)cn1Cc1ccccc1 [Compound 2-2, N-(2-(2-(aminomethyl)-1-benzyl-1H-imidazol-4-yl)ethyl)benzamide] | 101 to 1000 |
| CN(CCNc1ccccn1)C[C@H]1O[C@@H](n2cnc3c(N)ncnc32)[C@H](O)[C@@H]1O [Compound 56-1] | 101 to 1000 |
| Cc1ccc(NC(=O)CC2NC(N3CCc4ccccc4C3)=NC2=O)cc1 (stereo not shown) [Compound 23-14] | 1000 to 10000 |
| Cc1ccc(C(=O)CC2NC(N3CCN(c4ccccn4)CC3)=NC2=O)cc1 (stereo not shown) [Compound 33-14] | 1000 to 10000 |
| Nc1ncnc2c1ncn2[C@@H]1O[C@H](CSCCC(N)CO)[C@@H](O)[C@H]1O (stereo partly shown) [Compound 90-1] | < 100 |
| CN(CCNCc1ccccc1F)C[C@H]1O[C@@H](n2cnc3c(N)ncnc32)[C@H](O)[C@@H]1O [Compound 15-1] | < 100 |
| CC1CCCCN1CCCNCCN(C)C[C@H]1O[C@@H](n2cnc3c(N)ncnc32)[C@H](O)[C@@H]1O (stereo partly shown) [Compound 66-1] | 101 to 1000 |
| O=C(CC1NC(N2CCN(c3ccccc3)CC2)=NC1=O)c1ccccc1Cl (stereo not shown) [Compound 2-6] | 101 to 1000 |
| CN(CCNCc1ccco1)C[C@H]1O[C@@H](n2cnc3c(N)ncnc32)[C@H](O)[C@@H]1O [Compound 14-1] | 101 to 1000 |
| COCCNCCN(C)C[C@H]1O[C@@H](n2cnc3c(N)ncnc32)[C@H](O)[C@@H]1O [Compound 59-1] | 101 to 1000 |
| NCc1ncc(CCNC(=O)c2ccccc2)n1Cc1ccccc1 [Compound 7-13] | 10000 to 50000 |
| CCN(CCc1ccc(Cl)cc1)CCN(C)C[C@H]1O[C@@H](n2cnc3c(N)ncnc32)[C@H](O)[C@@H]1O [Compound 50-1] | 101 to 1000 |
| O=C(CC1NC(N2CCN(c3ccccc3)CC2)=NC1=O)Nc1ccc(Cl)c(Cl)c1 (stereo not shown) [Compound 59-14] | 101 to 1000 |
| CN(CCNCCc1ccc(O)cc1)C[C@H]1O[C@@H](n2cnc3c(N)ncnc32)[C@H](O)[C@@H]1O [Compound 70-1] | < 100 |
| Cc1cc(NC(=O)CC2NC(N3CCN(c4ccccc4)CC3)=NC2=O)ccc1Cl (stereo not shown) [Compound 74-14] | 1000 to 10000 |
| Cc1ccc(C(=O)CC2NC(N3CCc4ccccc4C3)=NC2=O)cc1 (stereo not shown) [Compound 29-14] | 101 to 1000 |
| NCCN(CCC[C@H](N)CO)C[C@H]1O[C@@H](n2cnc3c(N)ncnc32)[C@H](O)[C@@H]1O [Compound 35-1] | 101 to 1000 |
| CN(CCNC1CCNCC1)C[C@H]1O[C@@H](n2cnc3c(N)ncnc32)[C@H](O)[C@@H]1O [Compound 53-1] | 101 to 1000 |

| Compound | IC50 [nM] |
| --- | --- |
| CN(CCc1ccc(Cl)cc1)CCN(C)C[C@H]1O[C@@H](n2cnc3c(N)ncnc32)[C@H](O)[C@@H]1O [Compound 52-1] | 101 to 1000 |
| Cc1ccc(NC(=O)CC2NC(N3CCN(Cc4ccccc4)CC3)=NC2=O)cc1 (stereo not shown) [Compound 9-14] | 1000 to 10000 |
| Nc1ncnc2c1ncn2[C@@H]1O[C@H](CN(CCNCCc2ccc(Cl)cc2)Cc2ccccc2)[C@@H](O)[C@H]1O [Compound 81-1] | < 100 |
| CCN1CCN(C2=NC(=O)C(CC(=O)Nc3ccc(OC)cc3)N2)CC1 (stereo not shown) [Compound 11-14] | 1000 to 10000 |
| O=C(CC1NC(N2CCN(c3ccccc3)CC2)=NC1=O)Nc1ccc(Br)cc1 (stereo not shown) [Compound 4-6] | 101 to 1000 |
| O=C(CC1NC(N2CCN(c3ccccc3)CC2)=NC1=O)c1ccccc1Br (stereo not shown) [Compound 75-14] | 101 to 1000 |
| Cc1ccc(C(=O)CC2NC(N3CCN(c4cccc(F)c4)CC3)=NC2=O)cc1 (stereo not shown) [Compound 31-14] | 1000 to 10000 |
| CC(C)N(CCN)C[C@H]1O[C@@H](n2cnc3c(N)ncnc32)[C@H](O)[C@@H]1O [Compound 26-1] | 101 to 1000 |
| CC(=O)N(CCNCCc1ccc(Cl)cc1)C[C@H]1O[C@@H](n2cnc3c(N)ncnc32)[C@H](O)[C@@H]1O [Compound 76-1] | 101 to 1000 |
| O=C(CC1NC(N2CCC(c3ccccc3)CC2)=NC1=O)Nc1ccc(Cl)cc1 (stereo not shown) [Compound 57-14] | 1000 to 10000 |
| Nc1ncnc2c1ncn2[C@@H]1O[C@H](CSC[C@H](N)C(=O)O)[C@@H](O)[C@H]1O [Compound 88-1] | 101 to 1000 |
| CCc1ccc(NC(=O)CC2NC(N3CCN(CC)CC3)=NC2=O)cc1 (stereo not shown) [Compound 19-14] | 1000 to 10000 |
| CN(CCNCc1ccc(Cl)cc1F)C[C@H]1O[C@@H](n2cnc3c(N)ncnc32)[C@H](O)[C@@H]1O [Compound 19-1] | 101 to 1000 |
| COc1cc(CNCCN(C)C[C@H]2O[C@@H](n3cnc4c(N)ncnc43)[C@H](O)[C@@H]2O)cc(OC)c1 [Compound 11-1] | 101 to 1000 |
| CCOc1ccc(NC(=O)CC2NC(N3CCN(c4ccccc4F)CC3)=NC2=O)cc1 (stereo not shown) [Compound 15-14] | 1000 to 10000 |
| CN(CCN(C)C[C@H]1O[C@@H](n2cnc3c(N)ncnc32)[C@H](O)[C@@H]1O)Cc1ccc(Cl)cc1 [Compound 10-1] | 101 to 1000 |
| COc1ccc(NC(=O)CC2NC(N3CCN(c4ccccn4)CC3)=NC2=O)cc1 (stereo not shown) [Compound 7-14] | 1000 to 10000 |
| CCN(CCN(C)C[C@H]1O[C@@H](n2cnc3c(N)ncnc32)[C@H](O)[C@@H]1O)Cc1ccncc1 [Compound 17-1] | < 100 |
| COc1cc(Cl)ccc1NC(=O)CC1NC(N2CCN(c3ccccc3)CC2)=NC1=O (stereo not shown) [Compound 63-14] | 101 to 1000 |

| Compound | IC50 [nM] |
| --- | --- |
| NCCN(CCCCC(=O)O)C[C@H]1O[C@@H](n2cnc3c(N)ncnc32)[C@H](O)[C@@H]1O [Compound 34-1] | < 100 |
| COCC(C)NCCN(C)C[C@H]1O[C@@H](n2cnc3c(N)ncnc32)[C@H](O)[C@@H]1O (stereo partly shown) [Compound 67-1] | 101 to 1000 |
| Cc1cccc(NC(=O)CC2NC(N3CCN(c4ccccc4)CC3)=NC2=O)c1 (stereo not shown) [Compound 8-14] | 1000 to 10000 |
| CCN(CC)CCN(C)C[C@H]1O[C@@H](n2cnc3c(N)ncnc32)[C@H](O)[C@@H]1O [Compound 38-1] | 101 to 1000 |
| CN(CCN1CCCN(Cc2ccccc2)CC1)C[C@H]1OC(n2cnc3c(N)ncnc32)[C@H](O)[C@@H]1O (stereo partly shown) [Compound 40-1] | 101 to 1000 |
| CC(NCCN(C)C[C@H]1O[C@@H](n2cnc3c(N)ncnc32)[C@H](O)[C@@H]1O)c1ccccc1 (stereo partly shown) [Compound 5-1] | 101 to 1000 |
| Nc1ncnc2c1ncn2[C@@H]1O[C@H](CNCCNCCc2ccc(Cl)cc2)[C@@H](O)[C@H]1O [Compound 74-1] | < 100 |
| CN(CCNCc1ccc(Cl)c(Cl)c1)C[C@H]1O[C@@H](n2cnc3c(N)ncnc32)[C@H](O)[C@@H]1O [Compound 13-1] | 101 to 1000 |
| CCN1CCN(C2=NC(=O)C(CC(=O)Nc3ccc(C(C)=O)cc3)N2)CC1 (stereo not shown) [Compound 14-14] | 1000 to 10000 |
| CSC[C@H]1O[C@@H](n2cnc3c(N)ncnc32)[C@H](O)[C@@H]1O [Compound 96-1] | 101 to 1000 |
| O=C1c2ccccc2C(=O)N1CCCSC[C@H]1C[C@@H](n2ccc3cncnc32)[C@H](O)[C@@H]1O [Compound 93-1] | 101 to 1000 |
| CN1CCC(N(C)C[C@H]2O[C@@H](n3cnc4c(N)ncnc43)[C@H](O)[C@@H]2O)C1 (stereo partly shown) [Compound 85-1] | 101 to 1000 |
| CC(CO)NCCN(C)C[C@H]1O[C@@H](n2cnc3c(N)ncnc32)[C@H](O)[C@@H]1O (stereo partly shown) [Compound 58-1] | < 100 |
| CN(CCNC1CCCC1)C[C@H]1O[C@@H](n2cnc3c(N)ncnc32)[C@H](O)[C@@H]1O [Compound 65-1] | 101 to 1000 |
| CC(NCCN(C)C[C@H]1O[C@@H](n2cnc3c(N)ncnc32)[C@H](O)[C@@H]1O)c1ccc(Br)cc1 (stereo partly shown) [Compound 18-1] | < 100 |
| COc1cc(NC(=O)CC2NC(N3CCN(c4ccccc4)CC3)=NC2=O)ccc1Cl (stereo not shown) [Compound 64-14] | 1000 to 10000 |
| Cc1cccc(CN(C)CCN(C)C[C@H]2O[C@@H](n3cnc4c(N)ncnc43)[C@H](O)[C@@H]2O)c1 [Compound 4-1] | 101 to 1000 |
| Cc1ccc(C(=O)CC2NC(N3CCN(c4ccccc4F)CC3)=NC2=O)cc1 (stereo not shown) [Compound 30-14] | 1000 to 10000 |
| O=C(CC1NC(N2CCN(c3ccccc3)CC2)=NC1=O)c1ccc(Cl)cc1 (stereo not shown) [Compound 42-14] | 101 to 1000 |
